Reference: article PMC12557383, “Development of a Potent and Functional In Vivo Peptide Competitive Inhibitor for the Toxin MazF” (Journal of Medicinal Chemistry, 2025)
Several values for one entry are separate records, joined by “and”; a condition that tells them apart may be missing. Equal values may be shown once.

B3: MazF_(E24A) (E. coli toxin MazF with glutamic acid 24 replaced with alanine, His6 tag removed) (enzyme)
chain: MVSRYVPDMGDLIWVDFDPTKGSAQAGHRPAVVLSPFMYNNKTGMCLCVPCTTQSKGYPFEVVLSGQERDGVALADQVKSIAWRARGATKKGTVAPEELQLIKAKINVLIG
notes: For NMR the same construct was 15N or 15N/13C labelled; also called the toxin; source: E. coli BL21 (DE3) RIL, purified (Ni-NTA, TEV cleavage, second Ni-NTA, SEC); not shown: His6, N-terminal, cleaved

Experiments:
[1] = CD spectroscopy, α-helix content by K2D2 deconvolution; format: physicochemical; conditions: 0.25 mg/mL in 10 mM NaHPO4, CD deconvolution with K2D2
Protocol: CD spectra were recorded in a Jasco 815 spectropolarimeter with a 0.25 mg/mL concentrated sample of SamF in 10 mM NaHPO4 buffer. CD spectra were recorded with 1 nm data pitch, 1 s of integration time, scanning speed of 50 nm/min, and wavelength range from 200 to 260 nm. The final spectrum is the average of eight accumulations. The peptide spectrum was subtracted from that of the buffer and smoothed by the Savitzky-Golay method.

MazFE24A [2] = molecular target: T1, MazFE24A (Escherichia coli, UniProt P0AE70, E24A); experiment: Competition ligand binding by displacement ITC (MazE vs SamF); conditions: 50 μM MazE titrated into 10 μM MazFE24A with 0, 10 or 30 μM SamF
T1 construct: His6 (N, cleaved yes); made in house; host or cells: E. coli BL21 (DE3) RIL
T1 sequence (P0AE70 1-111 E24A): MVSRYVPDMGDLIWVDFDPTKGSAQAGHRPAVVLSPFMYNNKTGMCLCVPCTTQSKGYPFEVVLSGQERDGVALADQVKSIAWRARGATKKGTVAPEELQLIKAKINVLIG
Excerpt: Raw heats were integrated and fitted by a least-squares algorithm to the “one set of sites” model to calculate thermodynamic parameters after subtracting the heat of dilution.

His^6-MazF = molecular target: T2, His^6-MazF (Escherichia coli, UniProt P0AE70); experiment: His6-MazF enzyme activity with fluorescence-suppressed chimeric DNA/RNA substrate; format: biochemical
T2 construct: made in house
T2 sequence (P0AE70 1-111): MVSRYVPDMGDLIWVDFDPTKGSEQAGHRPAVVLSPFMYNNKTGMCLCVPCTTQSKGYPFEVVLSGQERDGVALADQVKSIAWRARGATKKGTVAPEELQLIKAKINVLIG
Protocol: Toxin activity was assessed with a chimeric DNA/RNA substrate labeled with a fluorophore on the 5′ end and a quencher on the 3′ end (Tables S1–S13) as described. The reaction was performed in 50 mM Tris, pH 7, containing 1 mM EDTA in a 96-well plate and in a final volume of 100 μL. The buffer was initially equilibrated at 35 °C, and His^6-MazF was added to a final concentration of 0.75 μM. Inhibitors were incubated with His^6-MazF for 20 min/35 °C before the reaction was started with 0.5 μM of substrate. Fluorescence intensity was recorded every half minute for 90 min on a SpectraMax Paradigm spectrometer (Molecular Devices) at 35 °C with an excitation wavelength of 488 nm and detection at 520 nm. The fluorescence values of all reactions were subtracted from that of the negative control containing only buffer and substrate. The highest fluorescence value obtained for the reaction catalyzed by His^6-MazF was set to 1, and the fluorescence values obtained for all other reactions were normalized relative to this.
The mechanism of inhibition of the toxin by SamF was determined by measuring the initial enzyme-catalyzed ACA site hydrolysis rates (v 0) in the absence and presence of increasing concentrations of the inhibitor. The concentration of His^6-MazF was 0.75 μM. V 0 was considered as the slope of the catalytic curve (fluorescence increase per time) at the initial moments of the reaction up to a maximum of 5 min, after the addition of the substrate. The Lineweaver–Burk graph was generated by plotting the reciprocal of v 0 as a function of the reciprocal of the substrate concentration in the presence of different amounts of inhibitor.
The IC50 value for the inhibition of MazF was calculated by measuring the v 0 as described above in the presence of different concentrations of the inhibitor. The concentration of His^6-MazF was 0.75 μM, and that of the substrate was 0.5 μM.

MazFE24A [3] = molecular target: T1, MazFE24A; experiment: Isothermal titration calorimetry (ITC), binding to MazFE24A; conditions: peptide into MazFE24A, pH about 7.10, one set of sites model
Protocol: Experiments were performed in a Malvern VP-ITC microcalorimeter with a reference offset of 15 μcal s^–1, syringe speed of 250 rpm, preinjection delay of 300 s, and a recording interval of 2 s. The thermodynamic parameters of binding were obtained by fitting the experimental thermogram (Origin 7.0 software) to the “one set of sites” model supplied by the equipment after subtracting the heat of dilution. […] Titrations of MazFE24A with SamF were carried out by 20 injections of 15 μL of SamF (225 μM) to a 28 μM MazFE24A solution contained in the calorimetric cell. Samples of MazFE24A and SamF were prepared in the same buffer with a final pH of about 7.10 (30 mM NaHPO4, 4 mM NH4HCO3, 60 mM NaCl, 0.3 mM EDTA, and 2.4 mM DTT).

[4] = Solubility of the purified peptide; format: physicochemical
[5] = molecular target: T3, His^6-MazF (wild-type E. coli toxin MazF) (E. coli, UniProt P0AE70 1-111); experiment: cell-based or functional assay
T3 sequence: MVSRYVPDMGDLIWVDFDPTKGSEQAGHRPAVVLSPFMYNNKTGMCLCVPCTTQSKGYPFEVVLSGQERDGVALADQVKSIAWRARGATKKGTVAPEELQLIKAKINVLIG

[6] = molecular target: B3; experiment: ITC; SamF (225 μM) in the syringe, 20 injections of 15 μL into 28 μM MazF_(E24A) in the cell; 30 mM NaHPO4, 4 mM NH4HCO3, 60 mM NaCl, 0.3 mM EDTA, 2.4 mM DTT, pH about 7.10; one set of sites model; average of two independent experiments; conditions: both partners purified
[7] = molecular target: T4, MazF_(E24A) (E. coli toxin MazF with glutamic acid 24 replaced with alanine, His6 tag removed) (E. coli, UniProt P0AE70 1-111, E24A); experiment: ITC
[8] = molecular target: B3; conditions: both partners purified
[9] = molecular target: the molecule itself; experiment: SEC-MALS; Superdex 75 10/300 GL in NMR buffer; 100 μL of 200 μM MazF_(E24A) alone or with an equimolar concentration of SamF
[10] = molecular target: B3; experiment: ITC; MazE (50 μM) in the syringe, 20 injections of 8 μL into 10 μM MazF_(E24A) in the cell; 50 mM NaHPO4 pH 7, 100 mM NaCl, 0.5 mM EDTA, 4 mM DTT; one set of sites model; conditions: both partners purified
[11] = molecular target: T4, MazF_(E24A) (E. coli toxin MazF with …); experiment: ITC; remark: listed apart in the source
[12] = molecular target: T4, MazF_(E24A) (E. coli toxin MazF with …); experiment: ITC; in presence of 10 uM SamF
[13] = molecular target: T4, MazF_(E24A) (E. coli toxin MazF with …); experiment: ITC; in presence of 30 uM SamF
[14] = SamF: average of two independent experiments

For Ac-SHLFWAQFDEYF-NH2 [SamF], the α-helix content ([1]; pH 7.0, 25 °C) was 82.6%, the α-helix content ([1]; pH 7.6, 25 °C) was 39.11% and the α-helix content ([1]; pH 8.0, 25 °C) was 23.36%. The “Competition with MazE for binding to MazF (result in words)” value (MazFE24A [2]) was “compete for binding to MazF”, the “Mechanism of inhibition (Lineweaver–Burk)” value (His^6-MazF; 0.75 μM His6-MazF, increasing substrate and inhibitor concentrations, Vmax unaffected, KM enhanced) was “competitive inhibition” and the “Inhibition of His6-MazF in whole E. coli cell lysate (result in words)” value (His^6-MazF; in the presence of about 0.5 μg of E. coli proteins) was “still efficiently able to inhibit”. The TΔS (MazFE24A [3]; [14]) was -3.9 kcal/mol and -3.9 ± 1.9 kcal/mol, the ΔH (MazFE24A [3]; [14]) was -11.8 ± 1.6 kcal/mol and the “Solubility at neutral pHs (result in words)” value ([4]; neutral pH) was “low solubility”. For the same molecule, the “Solubility at pHs 8–9 (result in words)” value ([4]; pH 8–9) was “highly soluble”.

For Ac-SHLFWAQFKEYF-NH2 [SamF_D9K], the “Inhibition of His6-MazF catalysis (result in words)” value (His^6-MazF; 0.75 μM His6-MazF, 0.5 μM substrate, 50 mM Tris pH 7, 35 °C, 20 min preincubation, fluorescence over 90 min) was “still able to prevent MazF catalysis”, the “protein:peptide complex stoichiometry (N)” value (MazFE24A [3]) was 1.0 ±0.1 and the TΔS (MazFE24A [3]; [14]) was -2.8 ± 0.9 kcal/mol.

B1: Small Antitoxin of MazF (SamF), synthetic peptide Ac-SHLFWAQFDEYF-NH2 (peptide)
peptide: Ac-SHLFWAQFDEYF-NH2
notes: also called synthetic SamF; the synthetic peptide; source: synthetic peptide (microwave-assisted solid phase, RP-HPLC purified)
For B1, the “IC50 of inhibition of His6-MazF (0.75 μM) cleavage of a fluorescence-suppressed DNA–RNA chimeric substrate (0.5 μM)” value [5] was 2170 nM, the Kd [6] was 2500 ± 700 nM and the dH [6] was -11.8 kcal/mol. The “stoichiometry N” value [6] was 1.

B2: SamF D9K mutant peptide (peptide)
peptide: Ac-SHLFWAQFKEYF-NH2
notes: the substitution is still to be applied; source: synthetic peptide
In the case of B2, the Kd [7] is reported as 6600 nM and the “fold change of KD against SamF” value [8] is reported as 2 fold.

In the case of B3, the “stoichiometry N” value [9] is reported as 2.

B4: MazE (E. coli antitoxin) (natural protein, UniProt P0AE72 1-82, looked up)
chain: MIHSSVKRWGNSPAVRIPATLMQALNLNIDDEVKIDLVDGKLIIEPVRKEPVFTLAELVNDITPENLHENIDWGEPKDKEVW
notes: also called full-length MazE; the antitoxin
For B4, the dH [10] was -25.6 ± 1.7 kcal/mol, the “stoichiometry N” value [10] was 0.5 and the Kd [11] was 5 nM. The Kd [12] was 6 nM and the Kd [13] was 2 nM.
